Like-named read-outs stand apart in the source and are kept apart here.
What was measured:
Assay in all cases: Thermal stability shift assay
Type in all cases: binding
[1] = biological target: T1, MAP3K5 (Homo sapiens, UniProt Q99683); conditions: read-out: Tm shift MAP3K5
T1 construct: purchased in-house (SGC Oxford thermal shift panel)
T1 sequence (Q99683 1-1374): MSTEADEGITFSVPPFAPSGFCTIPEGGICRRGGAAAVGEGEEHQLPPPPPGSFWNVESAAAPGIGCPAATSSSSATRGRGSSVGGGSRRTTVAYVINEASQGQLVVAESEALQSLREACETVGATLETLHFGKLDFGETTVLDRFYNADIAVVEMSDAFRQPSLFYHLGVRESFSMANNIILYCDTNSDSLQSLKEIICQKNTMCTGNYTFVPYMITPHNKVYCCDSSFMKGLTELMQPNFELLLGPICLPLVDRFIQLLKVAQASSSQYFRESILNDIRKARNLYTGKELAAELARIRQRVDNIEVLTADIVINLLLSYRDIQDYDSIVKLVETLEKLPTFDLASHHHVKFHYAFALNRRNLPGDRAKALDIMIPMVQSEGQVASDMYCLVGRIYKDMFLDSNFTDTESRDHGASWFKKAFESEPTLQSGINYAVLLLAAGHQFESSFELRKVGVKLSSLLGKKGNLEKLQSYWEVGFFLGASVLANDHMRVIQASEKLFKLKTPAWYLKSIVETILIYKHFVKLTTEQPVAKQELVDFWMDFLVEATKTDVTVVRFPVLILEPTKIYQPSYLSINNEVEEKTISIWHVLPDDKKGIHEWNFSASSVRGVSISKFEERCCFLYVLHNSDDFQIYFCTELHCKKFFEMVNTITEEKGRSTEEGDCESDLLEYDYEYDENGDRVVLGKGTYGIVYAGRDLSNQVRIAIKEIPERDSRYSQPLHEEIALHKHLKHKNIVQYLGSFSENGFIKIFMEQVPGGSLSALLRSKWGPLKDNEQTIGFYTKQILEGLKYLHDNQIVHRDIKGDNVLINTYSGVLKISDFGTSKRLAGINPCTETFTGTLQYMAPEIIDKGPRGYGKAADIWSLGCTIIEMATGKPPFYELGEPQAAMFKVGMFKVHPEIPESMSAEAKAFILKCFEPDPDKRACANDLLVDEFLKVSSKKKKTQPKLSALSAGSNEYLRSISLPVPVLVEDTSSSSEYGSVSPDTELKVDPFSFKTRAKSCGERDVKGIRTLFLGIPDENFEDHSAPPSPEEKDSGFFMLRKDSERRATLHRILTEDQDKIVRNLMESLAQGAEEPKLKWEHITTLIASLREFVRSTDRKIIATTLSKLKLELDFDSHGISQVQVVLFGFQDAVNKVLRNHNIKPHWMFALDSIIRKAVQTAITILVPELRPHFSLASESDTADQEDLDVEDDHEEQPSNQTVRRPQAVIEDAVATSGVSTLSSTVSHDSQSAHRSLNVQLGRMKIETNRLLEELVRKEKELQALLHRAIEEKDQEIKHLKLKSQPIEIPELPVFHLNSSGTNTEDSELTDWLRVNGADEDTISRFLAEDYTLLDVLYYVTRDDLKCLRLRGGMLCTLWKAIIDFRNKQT
Outline: (§1)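 Each value reflects thermal unfolding of 2 μM protein with 10 μM inhibitor, detected by SyproOrange (1:1000 dilution) fluorescence in 10 mM HEPES pH 7.5, 500 mM NaCl.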

[2] = biological target: T2, MSSK1 (Homo sapiens, UniProt Q9UPE1); conditions: read-out: Tm shift MSSK1
T2 construct: purchased in-house (SGC Oxford thermal shift panel)
Outline: as §1

[3] = biological target: T3, p38d (Homo sapiens, UniProt O15264); conditions: read-out: Tm shift p38d
T3 construct: purchased in-house (SGC Oxford thermal shift panel)
T3 sequence (O15264 1-365): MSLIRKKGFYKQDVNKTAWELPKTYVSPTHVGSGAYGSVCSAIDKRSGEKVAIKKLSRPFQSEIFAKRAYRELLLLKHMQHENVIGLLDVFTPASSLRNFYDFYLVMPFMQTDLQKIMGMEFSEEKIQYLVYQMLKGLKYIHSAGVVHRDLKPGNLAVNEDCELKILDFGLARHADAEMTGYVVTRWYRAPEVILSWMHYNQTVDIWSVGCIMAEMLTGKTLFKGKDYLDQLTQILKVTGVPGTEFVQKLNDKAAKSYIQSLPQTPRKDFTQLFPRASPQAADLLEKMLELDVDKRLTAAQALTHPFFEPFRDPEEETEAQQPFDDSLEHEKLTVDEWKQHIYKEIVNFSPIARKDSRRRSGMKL
Outline: as §1

[4] = biological target: T4, MAP2K2 (Homo sapiens, UniProt P36507); conditions: read-out: Tm shift MAP2K2
T4 construct: purchased in-house (SGC Oxford thermal shift panel)
Outline: as §1

[5] = biological target: T5, VRK1 (Homo sapiens, UniProt Q99986); conditions: read-out: Tm shift VRK1
T5 sequence (Q99986 1-396): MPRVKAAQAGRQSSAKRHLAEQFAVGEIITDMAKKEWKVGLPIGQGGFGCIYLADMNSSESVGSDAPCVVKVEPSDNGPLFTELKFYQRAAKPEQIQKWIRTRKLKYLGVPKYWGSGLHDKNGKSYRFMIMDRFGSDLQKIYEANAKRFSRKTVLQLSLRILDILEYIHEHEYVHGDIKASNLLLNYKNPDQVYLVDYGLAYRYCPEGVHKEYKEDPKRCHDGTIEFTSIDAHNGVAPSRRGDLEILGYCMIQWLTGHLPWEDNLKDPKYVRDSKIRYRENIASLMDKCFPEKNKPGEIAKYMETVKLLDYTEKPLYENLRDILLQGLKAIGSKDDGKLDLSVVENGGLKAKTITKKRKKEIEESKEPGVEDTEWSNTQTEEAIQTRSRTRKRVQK
Outline: as §1

[6] = biological target: VRK2 (Homo sapiens, UniProt Q86Y07); conditions: read-out: Tm shift VRK2
Outline: as §1

Sequence of VRK2 (Q86Y07 whole entry): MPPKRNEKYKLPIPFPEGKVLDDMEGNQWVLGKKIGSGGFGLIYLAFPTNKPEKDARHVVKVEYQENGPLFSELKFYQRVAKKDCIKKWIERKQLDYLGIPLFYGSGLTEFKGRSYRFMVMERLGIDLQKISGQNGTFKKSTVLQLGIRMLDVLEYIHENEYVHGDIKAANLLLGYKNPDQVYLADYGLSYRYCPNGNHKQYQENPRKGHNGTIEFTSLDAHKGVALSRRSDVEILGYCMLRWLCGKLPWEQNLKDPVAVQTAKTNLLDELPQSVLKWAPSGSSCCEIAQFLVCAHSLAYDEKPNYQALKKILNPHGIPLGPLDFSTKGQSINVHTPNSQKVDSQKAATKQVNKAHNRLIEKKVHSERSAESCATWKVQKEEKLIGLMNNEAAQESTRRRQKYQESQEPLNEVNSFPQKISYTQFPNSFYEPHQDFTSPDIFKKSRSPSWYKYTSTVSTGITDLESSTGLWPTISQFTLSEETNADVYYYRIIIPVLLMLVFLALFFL
T4 sequence (P36507 whole entry): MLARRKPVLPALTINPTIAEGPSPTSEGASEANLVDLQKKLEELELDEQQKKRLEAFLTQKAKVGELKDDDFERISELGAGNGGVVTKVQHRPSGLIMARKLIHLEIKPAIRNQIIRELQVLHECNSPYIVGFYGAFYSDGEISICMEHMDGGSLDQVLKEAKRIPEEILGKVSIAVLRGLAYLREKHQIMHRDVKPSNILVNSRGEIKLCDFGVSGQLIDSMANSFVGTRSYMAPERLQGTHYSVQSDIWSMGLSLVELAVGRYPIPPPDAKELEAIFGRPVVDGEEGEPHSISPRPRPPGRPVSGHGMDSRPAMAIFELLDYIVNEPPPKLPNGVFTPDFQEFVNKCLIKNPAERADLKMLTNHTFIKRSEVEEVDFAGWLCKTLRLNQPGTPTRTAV
T2 sequence (Q9UPE1 whole entry): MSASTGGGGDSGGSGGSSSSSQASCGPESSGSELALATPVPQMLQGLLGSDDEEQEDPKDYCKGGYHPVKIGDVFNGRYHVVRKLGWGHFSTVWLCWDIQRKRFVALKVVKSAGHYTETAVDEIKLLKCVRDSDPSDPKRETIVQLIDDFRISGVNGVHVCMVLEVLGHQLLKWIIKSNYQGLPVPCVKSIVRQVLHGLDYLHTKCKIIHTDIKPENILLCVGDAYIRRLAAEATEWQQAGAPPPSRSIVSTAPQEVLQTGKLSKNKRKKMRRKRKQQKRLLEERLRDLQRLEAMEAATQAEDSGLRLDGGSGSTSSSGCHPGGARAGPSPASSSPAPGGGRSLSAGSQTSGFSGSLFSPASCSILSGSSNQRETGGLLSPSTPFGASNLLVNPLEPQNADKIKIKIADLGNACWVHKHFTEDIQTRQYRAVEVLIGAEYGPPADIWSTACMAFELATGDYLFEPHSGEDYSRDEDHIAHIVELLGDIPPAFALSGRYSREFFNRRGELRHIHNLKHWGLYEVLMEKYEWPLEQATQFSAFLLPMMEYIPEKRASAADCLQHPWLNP

CCOC(=O)c1c(C(C#N)=CN(C)C)c2ccc(Cl)c(Cl)c2n1C (mixture of isomers) [compound 2, (E/Z)-Ethyl 6,7-Dichloro-3-[1-Cyano-2-(Dimethylamino)Vinyl]-1-Methyl-1H-Indole-2-Carboxylate]
ΔTm at 10 µM ([1]; inhibitor 10 μM): 0.2 °C
ΔTm at 10 µM ([2]; inhibitor 10 μM): 0.3 °C
ΔTm at 10 µM ([3]; inhibitor 10 μM): 0.4 °C
ΔTm at 10 µM ([4]; inhibitor 10 μM): -0.4 °C
ΔTm at 10 µM ([5]; inhibitor 10 μM): 0.2 °C
ΔTm at 10 µM ([6]; inhibitor 10 μM): 0.2 °C

NC1=NC(=O)/C(=C2\CCNC(=O)c3[nH]c(Br)cc32)N1 [Hymenialdisine, hymenialdisine, reference compound]
ΔTm at 10 µM ([1]; inhibitor 10 μM): 8.7 °C
ΔTm at 10 µM ([2]; inhibitor 10 μM): 0.3 °C
ΔTm at 10 µM ([3]; inhibitor 10 μM): -0.1 °C
ΔTm at 10 µM ([4]; inhibitor 10 μM): 2 °C
ΔTm at 10 µM ([5]; inhibitor 10 μM): 2 °C
ΔTm at 10 µM ([6]; inhibitor 10 μM): 0.8 °C

CCOC(=O)c1c(C(C#N)=CN)c2ccc(Cl)c(Cl)c2n1C (mixture of isomers) [KH-CB20, (E/Z)-Ethyl 3-(2-Amino-1-Cyanovinyl)-6,7-Dichloro-1-Methyl-1H-Indole-2-Carboxylate]
ΔTm at 10 µM [1]: 0.5 °C
ΔTm at 10 µM [2]: 0.5 °C
ΔTm at 10 µM [3]: -0.3 °C
ΔTm at 10 µM [4]: 0 °C
ΔTm at 10 µM [5]: 0.2 °C
ΔTm at 10 µM [6]: 0.1 °C

CCOC(=O)c1c(/C(C#N)=C\N)c2ccc(Cl)c(Cl)c2n1C [KH-CB19, (E)-Ethyl 3-(2-Amino-1-Cyanovinyl)-6,7-Dichloro-1-Methyl-1H-Indole-2-Carboxylate]
ΔTm at 10 µM [1]: 0.8 °C
ΔTm at 10 µM [2]: 0.2 °C
ΔTm at 10 µM [3]: 0.3 °C
ΔTm at 10 µM [4]: 0.1 °C
ΔTm at 10 µM [5]: 0 °C
ΔTm at 10 µM [6]: -0.1 °C

Cn1c2c(Cl)c(Cl)ccc2c2c(C#N)c[nH]c(=O)c21 [compound 3, 7,8-Dichloro-9-Methyl-1-Oxo-2,9-Dihydro-1H-Pyrido[3,4-b]Indole-4-Carbonitrile]
ΔTm at 10 µM ([1]; inhibitor 10 μM): 0.8 °C
ΔTm at 10 µM ([2]; inhibitor 10 μM): 0.3 °C
ΔTm at 10 µM ([3]; inhibitor 10 μM): 0.3 °C
ΔTm at 10 µM ([4]; inhibitor 10 μM): 0.1 °C
ΔTm at 10 µM ([5]; inhibitor 10 μM): -0.4 °C
ΔTm at 10 µM ([6]; inhibitor 10 μM): 0.1 °C

From publication PMC3145970, “Specific CLK Inhibitors from a Novel Chemotype for Regulation of Alternative Splicing” (Chemistry & Biology, 2011)
